Data: patent US10660967B2, “Curcumin conjugates and methods of use thereof” (priority 2016, dated 2020)
Where two headings read alike, the source gives them in different places.

Legend:
MCF-7 cells = assay: Effect on doxorubicin induced cytotoxicity (MTT)
Procedure, shortened: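 MCF-7 cells were exposed for 48 hr to 100 μM curcumin derivative alone or combined with 10 μM doxorubicin. Controls got medium, DMSO vehicle, or vehicle+doxorubicin. Percent viable cells was read by MTT assay.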

gastric mucosa = assay: Ulcerogenic liability (ulcer index); assay type: in vivo, albino mice; conditions: orally, three successive days, 10 mg/kg indomethacin mol equivalent; for Number of animals with ulcer: 6 animals per group; for Ulcer index: sum of the three values
Procedure, shortened: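 Albino mice were fasted 18 h before dosing, and controls got saline with a few drops of Tween 80. Gastric mucosa was checked under a 10× lens for lesions and erosions. The ulcer index combines percentage incidence divided by 10, mean ulcers per stomach and mean severity.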

[1] = system: Salmonella typhi ATCC19430; assay: Antimicrobial MIC, agar dilution; assay type: cell-based; conditions: Salmonella enterica, read-out: Minimum inhibitory concentration (MIC)
[2] = system: lipopolysaccharide-stimulated peritoneal macrophages; assay: Production of nitric oxide by lipopolysaccharide-stimulated peritoneal macrophages (Greiss reagent); assay type: cell-based; set-up: Potency (%): % inhibition of nitric oxide production relative to lipopolysaccharide-stimulated macrophages: concentration or dose not given beside the values; conditions: LPS-stimulated peritoneal macrophages; for Nitric oxide (nitrite) concentration, μM (average ± SD): 24 h, nitrite by Greiss reagent
Procedure, shortened: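 NO output was quantified as accumulated nitrite, reacting supernatant with Greiss reagent (sulfanilamide/α-naphthylamine) and reading at 532 nm. Beforehand, cells had been incubated 24 h at 37° C. in nitrite-free, 0.1% BSA medium with 0.5–10 ng/ml LPS, with or without catecholamines at […].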

[3] = system: Staphylococcus aureus ATCC25923; assay: Antimicrobial MIC, agar dilution
[4] = system: PC3 (prostate) carcinoma cell line; assay: Anti-tumor properties, MTT; assay type: cell-based; conditions: Homo sapiens
[5] = system: A-549 (lung) carcinoma cell line; assay: Anti-tumor properties, MTT; assay type: cell-based; conditions: Homo sapiens, A549
[6] = ATCC25923, 18 h, read-out: Minimum inhibitory concentration (MIC)
[7] = ATCC25923, read-out: Minimum inhibitory concentration (MIC)

SMILES | Percentage of viable cells MCF-7 (average ± SD) (MCF-7 cells; 10 μM DOX in combination with 100 μM curcumin derivative, 48 hr) | viability at 100 µM (MCF-7 cells; Homo sapiens, MCF7, 48 h, read-out: Percentage of viable cells MCF-7 (average ± SD)) [%] | % Incidence of ulcer divided by 10 (gastric mucosa) | Average of ulcer number (gastric mucosa) | Average severity of ulcer (gastric mucosa) | Number of animals with ulcer (gastric mucosa) | Ulcer index (gastric mucosa) | MIC ([1]; 18 h) [µg/mL] | MIC [1] [µM] | Potency (%): % inhibition of nitric oxide production relative to lipopolysaccharide-stimulated macrophages [2] [%] | Nitric oxide (nitrite) concentration, μM (average ± SD) [2] [µM] | MIC [3, 6] [µg/mL] | MIC [3, 7] [µM] | IC50 [4] [µM] | IC50 [5] [µM]
COc1cc(/C=C/C(=O)CC(=O)/C=C/c2ccc(OC(=O)C(C)NC(=O)OCc3ccccc3)c(OC)c2)ccc1OC(=O)C(C)NC(=O)OCc1ccccc1 (racemic) [Cbz-DL-Ala-Cur, ((1E,6E)-3,5-dioxohepta-1,6-diene-1,7-diyl)bis(2-methoxy-4,1-phenylene) bis(2-(((benzyloxy)carbonyl)amino)propanoate)] | 45.70 ± 2.23 | 98.8 ± 4.55 | 3.33 | 0.67 | 0.67 | 2/6 | 4.67 | 0.5 | 0.642 | 45.41 | 14.91 ± 0.62 | 0.5 | 0.642 |  | 
COc1cc(/C=C/C(=O)CC(=O)/C=C/c2ccc(OC(=O)[C@H](N)CCSC)c(OC)c2)ccc1OC(=O)[C@H](N)CCSC.Cl.Cl [HCl-D-Met-Cur, (2R,2′R)-1,1′-((((1E,6E)-3,5-dioxohepta-1,6-diene-1,7-diyl)bis(2-methoxy-4,1-phenylene))bis(oxy))bis(4-(methylthio)-1-oxobutan-2-aminium) chloride] |  |  | 0 | 0 | 0 | 0/6 | 0 | 0.25 | 0.355 | 49.57 | 13.77 ± 0.96 | 0.125 | 0.178 | 41.5 | 20
